From BindingDB's records for PubMed 32539378 (Shandong University, 2020)

How the values were obtained:
[1] = biological target: Angiotensin-converting enzyme 2 (Homo sapiens, UniProt Q9BYF1); test: Inhibition of SARS-COV2 S-RBD binding to human ACE2 expressed in HEK293T cells by NanoLuc luciferase assay
[2] = Inhibition of SARS-COV2 spike protein mediated infection of human ACE2 expressing cells at 50 uM […]
[3] = biological target: Spike glycoprotein (Severe acute respiratory syndrome coronavirus 2, UniProt P0DTC2); test: Inhibition of SARS-COV2 spike protein mediated infection of human ACE2 expressing cells at 50 uM […]

Chain of Angiotensin-converting enzyme 2 (Q9BYF1 whole entry): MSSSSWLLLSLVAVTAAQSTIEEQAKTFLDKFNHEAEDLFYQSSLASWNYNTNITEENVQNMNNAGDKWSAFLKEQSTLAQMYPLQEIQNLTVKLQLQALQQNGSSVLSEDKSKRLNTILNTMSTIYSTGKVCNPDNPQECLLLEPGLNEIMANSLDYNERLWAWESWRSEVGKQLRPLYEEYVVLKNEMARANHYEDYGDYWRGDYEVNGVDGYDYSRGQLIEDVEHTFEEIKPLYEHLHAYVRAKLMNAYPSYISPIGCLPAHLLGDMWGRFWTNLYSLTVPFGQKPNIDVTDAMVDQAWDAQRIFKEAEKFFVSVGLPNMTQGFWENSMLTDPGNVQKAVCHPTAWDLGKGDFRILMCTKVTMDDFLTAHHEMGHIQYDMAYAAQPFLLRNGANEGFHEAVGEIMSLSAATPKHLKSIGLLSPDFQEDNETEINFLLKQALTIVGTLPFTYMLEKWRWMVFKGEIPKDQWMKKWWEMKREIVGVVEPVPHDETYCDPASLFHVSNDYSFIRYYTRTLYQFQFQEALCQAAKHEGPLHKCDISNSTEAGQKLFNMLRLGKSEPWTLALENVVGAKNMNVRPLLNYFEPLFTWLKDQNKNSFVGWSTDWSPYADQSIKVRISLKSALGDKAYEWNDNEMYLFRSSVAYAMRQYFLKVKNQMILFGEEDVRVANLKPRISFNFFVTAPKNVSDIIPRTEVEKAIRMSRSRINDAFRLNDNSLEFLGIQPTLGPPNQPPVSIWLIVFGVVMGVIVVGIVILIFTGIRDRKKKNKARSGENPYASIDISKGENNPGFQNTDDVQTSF

| Compound | IC50 [2] [µM] | also measured |
| --- | --- | --- |
| COc1cc(C)nc2c(OC)cc(Cc3cnc(N)nc3N)cc12 |  | IC50 [1]: 0.7 µM |
| O=C(OC[C@H]1O[C@@H](OC(=O)c2cc(O)c(O)c(O)c2)[C@H](OC(=O)c2cc(O)c(O)c(O)c2)[C@H](OC(=O)c2cc(O)c(O)c(O)c2)[C@@H]1O)c1cc(O)c(O)c(O)c1 [med.21724, Compound 2] | 4.5 |  |
| O=c1cc(-c2ccc(O)c(O)c2)oc2cc(O)cc(O)c12 [2-(3,4-dihydroxyphenyl)-5,7-dihydroxy-4H-chromen-4-one] | 10.6 |  |
| COc1cc(Cc2cnc(N)nc2N)cc2c(N(C)C)cc(C)nc12 |  | IC50 [3]: 0.6 µM |
